From patent US9107844B2, “Topical skin treating compositions” (STIEFEL LABORATORIES INC., priority 2006, dated 2015)

What was measured:
Type in all cases: physicochemical
[1] = Stability of active ingredients, Example 10 composition (benzoyl peroxide/clindamycin); conditions: composition 4.84% BPO, 1.08% clindamycin, Initial 4.84%
Excerpt: A 2-week analysis and 6-month analysis of the composition was undertaken following the procedure of Example 2.

[2] = Stability of active ingredients, Example 9 composition (benzoyl peroxide/tazarotene); conditions: composition 5.18% BPO, 0.099% tazarotene, Initial 5.18%
Excerpt: Tables 9 and 10 show the stability of the active ingredients in a composition containing 5.18% of benzoyl peroxide and 0.099% of tazarotene.
A 2-week and 6-month analysis of the composition was undertaken following the procedure of Example 2.

[3] = Stability of combined active ingredients, Example 6 composition (benzoyl peroxide/tazarotene/clindamycin); conditions: 0.096% tazarotene, […] clindamycin, Initial […], 2 weeks
Procedure: Measurements were taken at the end of 2 weeks. The composition was stored at 2 different temperatures, i.e., 25° C. and 30° C. […]

Benzoyl Peroxide (BPO) (as % w/w) ([1]; 6° C., 2 weeks): 5.53 % w/w
Benzoyl Peroxide (BPO) (as % w/w) ([1]; 6° C., 6 months): 4.81 % w/w
Benzoyl Peroxide (BPO) (as % w/w) ([1]; 25° C., 2 weeks): 5.01 % w/w
Benzoyl Peroxide (BPO) (as % w/w) ([1]; 25° C., 6 months): 4.85 % w/w
Benzoyl Peroxide (BPO) (as % w/w) ([2]; 6° C., 6 months): 5.2 % w/w
Benzoyl Peroxide (BPO) (as % w/w) ([2]; 25° C., 2 weeks): 5.21 % w/w
Benzoyl Peroxide (BPO) (as % w/w) ([2]; 25° C., 6 months): 5.14 % w/w
Benzoyl Peroxide (BPO) (as % w/w) ([3]; 25° C.): 1.06 % w/w
Benzoyl Peroxide (BPO) (as % w/w) ([3]; 30° C.): 1.06 % w/w
SMILES: O=C(OOC(=O)c1ccccc1)c1ccccc1 [Benzoyl Peroxide]
